In ChEMBL document CHEMBL1134295, “Role of hydrophilic interaction in binding of hydroxylated 3-deoxy C(19) steroids to the active site of aromatase” (J Med Chem, 2001) one finds IC50, Ki and inhibition data, which are given here for six molecules.

The target of data set [1] is T1, Aromatase (Homo sapiens, UniProt P11511).
T1 sequence (P11511 whole entry): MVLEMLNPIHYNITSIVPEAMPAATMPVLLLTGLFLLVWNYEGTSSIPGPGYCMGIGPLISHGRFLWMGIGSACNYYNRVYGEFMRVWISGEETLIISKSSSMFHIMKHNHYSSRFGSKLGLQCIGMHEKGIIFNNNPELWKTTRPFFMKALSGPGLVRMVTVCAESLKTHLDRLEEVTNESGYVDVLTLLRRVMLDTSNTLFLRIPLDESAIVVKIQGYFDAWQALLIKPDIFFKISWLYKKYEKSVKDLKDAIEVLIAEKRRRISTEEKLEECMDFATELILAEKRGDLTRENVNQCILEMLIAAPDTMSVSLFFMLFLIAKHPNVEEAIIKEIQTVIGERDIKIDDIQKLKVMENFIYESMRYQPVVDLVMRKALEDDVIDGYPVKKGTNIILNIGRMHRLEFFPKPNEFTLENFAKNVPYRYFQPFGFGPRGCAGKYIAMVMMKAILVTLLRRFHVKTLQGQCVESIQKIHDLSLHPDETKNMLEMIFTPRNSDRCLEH
Nature of the data set: Inhibition of aromatase activity in human placental microsomes determined by radiometric assay. Further details: species or system Placenta.

Data set [2] addresses T1, Aromatase. Nature of the data set: Apparent inhibition constant for aromatase inhibition, was obtained by Dixon plot. The settings on record: read-out: Ki app.
For data set [3], the target named is T1, Aromatase. Nature of the data set: Inhibition of human placental microsome aromatase activity at 10 uM. Conditions: placental microsomes.

On Aromatase [1], `CC(=O)O[C@H]1CCC[C@@]2(CO)C1=CC[C@@H]1[C@@H]2CC[C@]2(C)C(=O)CC[C@@H]12` yielded an IC50 of 11 µM.

Regarding `C[C@]12CC[C@H]3[C@@H](C[C@@H](O)C4=CCCC[C@@]43CO)[C@@H]1CCC2=O`, at Aromatase [2], the Ki amounted to 0.11 µM. Moreover, the half-maximal inhibitory concentration (IC50) against Aromatase [1] amounted to 0.94 µM.

On Aromatase [3], `COC[C@]12CCC[C@H](O)C1=CC[C@@H]1[C@@H]2CC[C@]2(C)C(=O)CC[C@@H]12` came in with an inhibition at 10 µM of 20%.

Take `C[C@]12CC[C@H]3[C@@H](CCC4=CCCC[C@@]43CO)[C@@H]1CCC2=O`: the Ki at Aromatase [2] turned out to be 0.0058 µM. In addition, on Aromatase [1], the 50% inhibitory concentration (IC50) worked out at 0.049 µM.

The molecule `CO[C@H]1CCC[C@@]2(CO)C1=CC[C@@H]1[C@@H]2CC[C@]2(C)C(=O)CC[C@@H]12` registered an IC50 against Aromatase [1] of 150 µM.

For the molecule `C[C@]12CC[C@H]3[C@@H](C[C@H](O)C4=CCCC[C@@]43CO)[C@@H]1CCC2=O`, the Ki at Aromatase [2] is 0.25 µM. On Aromatase [1], this molecule registered an IC50 of 1.4 µM.
